Data set [1] relates to Mus musculus. The data set is described as follows: Anticonvulsant activity in Mus musculus albino (mouse) assessed as decrease in pentylenetetrazole-induced total seizure time at 15 mg/kg, ip administered 30 min followed by pentylenetetrazole induction measured for 30 min (reference value: 9.9 +/- 1.3 secs). The format is functional. The note with it: route intraperitoneal.

Data set [2] concerns Mus musculus. The data set is described as follows: Anticonvulsant activity in Mus musculus albino (mouse) assessed as increase in onset of pentylenetetrazole-induced seizure at 15 mg/kg, ip administered 30 min followed by pentylenetetrazole induction measured for 30 min (reference value: 184 +/- 32 secs). The format is functional. Conditions: route intraperitoneal.
Data set [3] relates to Mus musculus. The data set is described as follows: Neurotoxicity in Mus musculus albino (mouse) assessed as minimal motor impairment at 15 mg/kg, ip measured for 180 secs by rotorod test. The format is toxicity, organism-based. More on the design: dose 15 mg/kg, route intraperitoneal. The note with it: in vivo, 0.05 h.
The test system of data set [4] is Mus musculus. The data set is described as follows: Anticonvulsant activity in pentylenetetrazole-induced Mus musculus albino (mouse) seizure model assessed as death time at 15 mg/kg, ip administered 30 min followed by pentylenetetrazole induction measured for 30 min (reference value: 416 +/- 58.2 secs). The note with it: route intraperitoneal. The format is functional.

For data set [5], the system named is Mus musculus. The data set is described as follows: Anticonvulsant activity in pentylenetetrazole-induced Mus musculus albino (mouse) seizure model assessed as survival at 15 mg/kg, ip administered 30 min followed by pentylenetetrazole induction measured for 30 min relative to control. The note with it: 0.5 h, route intraperitoneal. The format is functional.

Data set [6] concerns Mus musculus. The data set is described as follows: Anticonvulsant activity in Mus musculus albino (mouse) assessed as protection against pentylenetetrazole-induced seizure at 15 mg/kg, ip administered 30 min followed by pentylenetetrazole induction measured for 30 min relative to control. The format is functional. Conditions: route intraperitoneal.

Consider `CCC1(c2ccccc2)C(=O)NC(=O)NC1=O` [PHENOBARBITAL], for which the Time in the data set on Mus musculus [1] turned out to be 2.2 s; in the data set with Mus musculus [2] it was 1088 s; with Mus musculus [4], 1800 s. Moreover, the Activity result in the data set on Mus musculus [3] is “Non-toxic”; in the data set with Mus musculus [6], 50%. In addition, in the data set on Mus musculus [5], the survival at 15 mg/kg was 100%.

The values above are taken from ChEMBL document CHEMBL3045472, “Synthesis and evaluation of some novel methylene-bridged aryl semicarbazones as potential anticonvulsant agents” (Med Chem Res, 2012).
